Calls of active or inactive are those of the source. For most assays here, no stated cut-off is given here; in the data, actives have a measured EC50 and inactives only a lower limit.
Experiments:
cells [1] = type: functional
[2] = tested on: Streptococcus sp. 'group A'; assay: growth inhibition of control SK(-) GAS strain, dose response, counter-screen for streptokinase expression inhibitor project, luminescence, kanamycin, BacTiterGlo, confirmation (AID 1900); type: functional, organism-based
cells [3] = type: functional, cell-based
Streptokinase A = target: T1, Streptokinase A (Streptococcus pyogenes serotype M1, UniProt P10520); assay: S. pyogenes streptokinase expression inhibitors, potency, dose response, plasminogen activation absorbance, OD405 (AID 1914); type: functional, Streptococcus pyogenes M1 GAS;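 further: secreted streptokinase activity via plasminogen activation per viability signal from cell pellet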
T1 sequence (P10520 whole entry): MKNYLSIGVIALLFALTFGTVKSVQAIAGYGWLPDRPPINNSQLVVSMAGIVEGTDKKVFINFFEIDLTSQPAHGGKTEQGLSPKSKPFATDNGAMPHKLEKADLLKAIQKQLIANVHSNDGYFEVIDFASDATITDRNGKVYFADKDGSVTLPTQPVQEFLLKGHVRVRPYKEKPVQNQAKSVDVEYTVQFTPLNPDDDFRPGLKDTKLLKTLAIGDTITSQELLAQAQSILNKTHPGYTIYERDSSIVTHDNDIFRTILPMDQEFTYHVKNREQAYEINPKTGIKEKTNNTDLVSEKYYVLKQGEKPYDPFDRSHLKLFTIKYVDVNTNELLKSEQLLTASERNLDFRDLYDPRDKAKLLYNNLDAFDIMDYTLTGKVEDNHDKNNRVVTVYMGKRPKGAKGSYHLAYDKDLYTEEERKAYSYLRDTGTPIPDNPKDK

cells [4] = type: functional, cell-based; remark: listed apart in the source
Streptococcus = assay: Group A Streptococcus viability loss, dose response, counter-screen for streptokinase expression inhibitor project, luminescence, BacTiterGlo (AID 1915); type: functional, organism-based;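 further: potency for reduction of bacterial viability or growth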
[5] = target: FAD-linked sulfhydryl oxidase ALR (Homo sapiens, UniProt P55789); assay: inhibitors of human ALR sulfhydryl oxidase, dose response, biochemical, H2O2 detection, luminescence, cherry-pick (AID 493248)
FAD-linked sulfhydryl oxidase ALR, sequence (P55789 whole entry): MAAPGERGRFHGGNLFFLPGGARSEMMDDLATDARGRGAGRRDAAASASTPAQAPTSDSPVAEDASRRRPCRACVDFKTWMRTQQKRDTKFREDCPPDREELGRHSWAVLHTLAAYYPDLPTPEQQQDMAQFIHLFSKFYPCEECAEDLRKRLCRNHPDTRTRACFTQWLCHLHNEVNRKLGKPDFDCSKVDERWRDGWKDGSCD

[6] = target: T2, Calpain-2 catalytic subunit (Sus scrofa, UniProt P43367); assay: pig calpain II inhibitor potency, dose response, biochemical, fluorogenic peptide substrate (AID 1420); type: functional
T2 sequence (P43367 whole entry): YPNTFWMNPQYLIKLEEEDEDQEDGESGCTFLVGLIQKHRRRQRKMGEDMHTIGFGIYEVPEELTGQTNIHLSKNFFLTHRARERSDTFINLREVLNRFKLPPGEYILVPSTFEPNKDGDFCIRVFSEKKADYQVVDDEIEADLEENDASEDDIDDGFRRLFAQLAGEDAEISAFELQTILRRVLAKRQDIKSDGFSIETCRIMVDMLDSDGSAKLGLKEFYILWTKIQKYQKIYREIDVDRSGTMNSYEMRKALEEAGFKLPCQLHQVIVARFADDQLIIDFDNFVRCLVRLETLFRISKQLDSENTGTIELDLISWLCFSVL

[7] = NIH-3T3 fibroblast cytotoxicity, dose response, cytotoxicity control, cell-based, fluorescence, Alamar Blue, secondary assay (AID 2327); type: functional;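 further: NIH-3T3 mouse fibroblasts cultured with fluconazole at 8 µg/mL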
[8] = C. albicans growth with fluconazole, confirmation, fluorescence, retest (AID 2467); type: functional, cell-based
[9] = inhibitors of intracellular T. cruzi replication, confirmation, NIH3T3 host cells, beta-gal luminescence (AID 2044); type: functional, cell-based;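 further: intracellular parasites grown in NIH/3T3 mouse fibroblasts as host cells; luminescent beta-galactosidase reporter signal from transgenic T. cruzi replicating inside host cells; inhibitors lower the luminescence signal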
[10] = cytotoxicity toward NIH3T3 fibroblasts, dose response, counter-screen, cell-based, ATP luminescence, mouse fibroblasts (AID 2010); type: functional;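 further: cells exposed to compound for about 90 hours before reading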
[11] = target: T3, Corticotropin-releasing factor receptor 2/Corticotropin-releasing factor-binding protein (Homo sapiens, UniProt P24387+Q13324); assay: Dose Response confirmation of uHTS hits for small molecule antagonists of the CRF-binding protein and CRF-R2 receptor complex.; type: functional; conditions: read-out: IC50_Mean
T3 sequence (Q13324 whole entry): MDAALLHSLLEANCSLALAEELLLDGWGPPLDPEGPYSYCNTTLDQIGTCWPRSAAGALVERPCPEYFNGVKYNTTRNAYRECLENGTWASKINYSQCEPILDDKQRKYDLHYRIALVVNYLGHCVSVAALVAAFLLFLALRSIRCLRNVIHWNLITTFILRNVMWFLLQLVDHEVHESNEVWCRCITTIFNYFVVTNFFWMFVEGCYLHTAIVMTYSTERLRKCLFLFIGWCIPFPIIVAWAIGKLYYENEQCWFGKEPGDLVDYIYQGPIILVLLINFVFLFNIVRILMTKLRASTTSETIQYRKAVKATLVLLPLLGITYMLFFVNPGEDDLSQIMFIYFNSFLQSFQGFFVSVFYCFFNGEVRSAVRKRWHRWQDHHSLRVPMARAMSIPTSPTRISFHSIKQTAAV
T3 sequence (P24387 whole entry): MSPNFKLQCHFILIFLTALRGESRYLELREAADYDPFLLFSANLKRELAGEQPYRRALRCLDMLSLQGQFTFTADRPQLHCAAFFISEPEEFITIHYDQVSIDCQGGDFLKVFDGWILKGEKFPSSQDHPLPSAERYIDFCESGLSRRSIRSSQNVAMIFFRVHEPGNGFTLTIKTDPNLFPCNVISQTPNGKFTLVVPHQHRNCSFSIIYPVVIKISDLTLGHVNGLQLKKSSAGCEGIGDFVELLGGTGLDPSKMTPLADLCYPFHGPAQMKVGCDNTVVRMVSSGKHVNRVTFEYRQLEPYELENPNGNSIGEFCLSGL

[12] = target: T3, Corticotropin-releasing factor receptor 2/Corticotropin-releasing factor-binding protein; assay: activators of CRF receptor 2 with binding protein – uHTS hits, confirmation (AID 602473); type: functional; conditions: read-out: EC50_Mean
Paired box protein Pax-8 = Paired box protein Pax-8 (Homo sapiens, UniProt Q06710); assay: inhibitors of PAX8-driven TPO luciferase reporter, dose response, RMG-I cells, cherry-pick (AID 687027); type: functional, cell-based;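 further: luciferase reporter driven by Pax8 target thyroperoxidase promoter measured by SteadyGlo luminescence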
Paired box protein Pax-8, sequence (Q06710 whole entry): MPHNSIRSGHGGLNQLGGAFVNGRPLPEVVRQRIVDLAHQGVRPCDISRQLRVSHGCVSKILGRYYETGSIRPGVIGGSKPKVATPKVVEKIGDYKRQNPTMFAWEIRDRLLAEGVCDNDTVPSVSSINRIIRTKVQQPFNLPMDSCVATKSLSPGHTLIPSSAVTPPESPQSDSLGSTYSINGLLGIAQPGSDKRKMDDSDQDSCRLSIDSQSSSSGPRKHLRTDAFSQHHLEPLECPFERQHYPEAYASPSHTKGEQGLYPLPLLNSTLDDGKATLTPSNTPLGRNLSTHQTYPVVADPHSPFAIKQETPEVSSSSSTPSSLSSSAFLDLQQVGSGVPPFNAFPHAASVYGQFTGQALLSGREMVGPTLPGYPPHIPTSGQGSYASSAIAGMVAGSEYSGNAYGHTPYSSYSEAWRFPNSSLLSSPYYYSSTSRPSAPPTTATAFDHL

[13] = target: T4, Rac GTPase-activating protein 1 (Homo sapiens, UniProt Q9H0H5); assay: MgcRacGAP GTPase-activating activity inhibitors, confirmation, biochemical, ADP Hunter fluorescence, primary and confirmatory (AID 624330); type: functional
T4 sequence (Q9H0H5 whole entry): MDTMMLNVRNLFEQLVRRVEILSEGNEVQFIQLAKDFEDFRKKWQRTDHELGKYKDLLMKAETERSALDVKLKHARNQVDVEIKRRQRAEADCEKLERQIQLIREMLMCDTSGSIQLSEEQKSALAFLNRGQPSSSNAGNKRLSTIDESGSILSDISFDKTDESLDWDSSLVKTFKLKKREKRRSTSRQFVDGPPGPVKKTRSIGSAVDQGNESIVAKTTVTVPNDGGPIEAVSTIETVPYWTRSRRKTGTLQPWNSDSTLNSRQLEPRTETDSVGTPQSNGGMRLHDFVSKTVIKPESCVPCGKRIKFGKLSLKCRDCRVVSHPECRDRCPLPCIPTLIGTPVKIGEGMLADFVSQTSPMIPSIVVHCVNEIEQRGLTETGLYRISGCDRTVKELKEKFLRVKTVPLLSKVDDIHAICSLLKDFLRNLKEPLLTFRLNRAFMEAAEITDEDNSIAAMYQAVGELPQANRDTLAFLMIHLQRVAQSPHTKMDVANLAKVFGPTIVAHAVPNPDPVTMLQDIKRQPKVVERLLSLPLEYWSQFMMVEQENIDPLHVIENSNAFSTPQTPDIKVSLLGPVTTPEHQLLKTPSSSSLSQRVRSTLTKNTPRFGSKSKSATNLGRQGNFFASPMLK

[14] = target: T5, RNA-binding protein pos-1 (Caenorhabditis elegans, UniProt G5EF15); assay: inhibitors of POS-1/mex-3 RNA binding, dose response, biochemical, fluorescence polarization (AID 1964);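 further: purified POS-1 fused to maltose binding protein made in E. coli; potency of compounds blocking POS-1 binding to fluorescent RNA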
T5 sequence (G5EF15 whole entry): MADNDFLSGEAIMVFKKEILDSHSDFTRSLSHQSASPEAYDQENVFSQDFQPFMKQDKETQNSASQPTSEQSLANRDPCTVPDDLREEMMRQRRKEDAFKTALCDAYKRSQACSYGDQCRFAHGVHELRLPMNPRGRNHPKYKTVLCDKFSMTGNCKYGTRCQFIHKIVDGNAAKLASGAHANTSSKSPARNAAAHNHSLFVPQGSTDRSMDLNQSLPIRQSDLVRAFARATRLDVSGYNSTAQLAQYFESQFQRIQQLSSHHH

[15] = target: T6, Zinc finger protein mex-5 (Caenorhabditis elegans, UniProt Q9XUB2); assay: MEX-5/TCR-2 RNA interaction inhibitors, dose response, biochemical, C. elegans, fluorescence polarization (AID 1960)
T6 sequence (Q9XUB2 whole entry): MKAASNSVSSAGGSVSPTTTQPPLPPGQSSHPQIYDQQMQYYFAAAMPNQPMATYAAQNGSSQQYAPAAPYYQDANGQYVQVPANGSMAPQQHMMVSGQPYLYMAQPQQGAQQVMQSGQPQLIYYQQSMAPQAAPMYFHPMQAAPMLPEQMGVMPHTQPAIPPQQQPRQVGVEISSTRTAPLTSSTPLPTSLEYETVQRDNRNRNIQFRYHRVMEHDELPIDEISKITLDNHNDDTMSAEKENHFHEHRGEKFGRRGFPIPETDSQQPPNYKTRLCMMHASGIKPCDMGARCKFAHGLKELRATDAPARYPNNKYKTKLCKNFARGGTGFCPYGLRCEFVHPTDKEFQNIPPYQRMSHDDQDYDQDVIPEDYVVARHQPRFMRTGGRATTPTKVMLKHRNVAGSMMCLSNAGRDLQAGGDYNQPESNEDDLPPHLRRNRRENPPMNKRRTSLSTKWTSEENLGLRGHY

CCOc1ccc(OCC(=O)Nc2ccc(OC)cc2)cc1
IC50 (cells [1]): 26.4 µM (active)

O=C(NCCS(=O)(=O)N1CCN(c2ccccc2F)CC1)C1CC(=O)N(c2ccc(F)cc2)C1 (centres undefined)
EC50 [2]: > 150 µM (not active)
EC50 (cells [3]): > 350 µM (not active)
EC50 (Streptokinase A): > 150 µM (not active)
EC50 (cells [4]): > 350 µM (not active)
EC50 (Streptococcus): > 150 µM (not active)

CC(C)(C)c1ccc(-c2nc3cc(N)ccc3o2)cc1
AC50 [5]: 0.751 µM (active)

CCCCn1c(S)nnc1-c1csc2c1CCC(C)C2 (centres undefined)
IC50 [6]: 18.2 µM (not active)

CC(C)Cn1c(N)c(C(=O)COC(=O)c2cccc(Cl)c2)c(=O)n(C)c1=O
IC50 [6]: 6.14 µM (active)

COc1ccc(-[n+]2c(-c3ccc(Br)cc3)cn3c2SC(C)C3)cc1 (centres undefined)
EC50 [7]: > 160 µM (inactive)
EC50 [8]: 2.96 µM (active)
EC50 [9]: 0.684 µM (active)
EC50 [10]: > 30 µM (not active)

CC(C)C[C@H](NC(=O)c1[nH]cnc1C(=O)NCc1ccccc1)C(=O)OC(C)(C)C
IC50 [6]: 10.8 µM (not active)

CCCS(=O)(=O)N1CCCC(C(=O)NCCCN(CC)c2cccc(C)c2)C1 (centres undefined)
AC50 [5]: 1.48 µM (active)
IC50 [11]: > 47.1 µM (inactive)
EC50 [12]: > 53 µM (inactive)

O=C(c1cccs1)N1N=C(c2ccccc2)CC1c1ccccc1 (centres undefined)
EC50 [2]: 6.85 µM (active)
EC50 (Streptokinase A): > 150 µM (not active)
EC50 (Streptococcus): 16.2 µM (active)

Cc1cc(NC(=S)N(Cc2cccc(Br)c2)CC2CCC(C(=O)O)CC2)ccc1Cl (centres undefined)
IC50 [6]: 11.3 µM (not active)

Cc1ccc(C)c(OC(=O)c2cncc(Br)c2)c1
EC50 [7]: > 160 µM (inactive)

CCOC(=O)CCCNC(=O)COC(=O)c1cc(Br)c(Br)s1
IC50 (cells [1]): 13.2 µM (active)

CCCNC(=O)c1c(CSc2ccccc2)noc1C(=O)NCc1ccccc1
IC50 [6]: 3.24 µM (not active)

CCCCN(CCCC)C(=O)/C=C/c1cccc([N+](=O)[O-])c1
IC50 [6]: 19.4 µM (not active)

C=CC[C@@H]1C=C(C)C[C@H](C)C[C@H](OC)[C@H]2O[C@@](O)(C(=O)C(=O)N3CCCC[C@H]3C(=O)O[C@H](/C(C)=C/[C@@H]3CC[C@@H](O)[C@H](OC)C3)[C@H](C)[C@@H](O)CC1=O)[C@H](C)C[C@@H]2OC
EC50 [7]: > 160 µM (inactive)
EC50 [8]: 0.035 µM (active)

CCn1c(=O)c(C(=O)NNC(=O)Cc2ccccc2)c(O)c2ccccc21
EC50 [2]: 9.03 µM (active)
EC50 (Streptokinase A): > 150 µM (not active)
EC50 (Streptococcus): > 150 µM (not active)

Cc1cccc(/C=C/C(=O)c2ccc(N3CCOCC3)cc2)c1
IC50 [6]: 15.7 µM (not active)

Cc1cc(C)c2nc(SCCc3ccccc3)nc(C)c2c1
EC50 [2]: 33.4 µM (active)
EC50 (Streptokinase A): 12.5 µM (active)
EC50 (Streptococcus): > 150 µM (not active)

O=C(O)c1cccc(S(=O)(=O)Nc2ccc(N3CCCCC3)cc2)c1
AC50 [5]: 1.75 µM (active)

NS(=O)(=O)c1ccc(NNC(=O)c2ccc(Br)o2)c([N+](=O)[O-])c1
AC50 [5]: 8.06 µM (active)

Cc1noc(C)c1C(=O)N1CCCC(Nc2ccc(C(C)C)cc2)C1 (centres undefined)
AC50 [5]: 7.67 µM (active)

Cc1ccc(NCc2nnc3n2CCCCC3)c(C)c1
AC50 [5]: 1.35 µM (active)

COc1ccc(S(=O)(=O)Nc2ccc3c(c2)C(=O)N([C@H](C)CO)C[C@@H](C)[C@H](CN(C)C(=O)Nc2ccc(C(F)(F)F)cc2)OCCCC[C@H](C)O3)cc1
AC50 (Paired box protein Pax-8): 7.32 µM (active)

O=C(O/N=C1\CCS(=O)(=O)c2sccc21)c1ccc(F)cc1
IC50 [6]: < 0.4 µM (not active)

C/C(CC(=O)Nc1ccc(N(C)C)cc1)=N\NC(=O)c1ccc([N+](=O)[O-])cc1
AC50 [5]: 5.09 µM (active)
IC50 [13]: 62.3 µM (active)

COc1ccc(C(=O)N/N=C/c2ccc(OC)c(CN3CCN(c4ccc(F)cc4)CC3)c2)cc1
AC50 (Paired box protein Pax-8): 35.8 µM (active)

COc1ccc(-c2cc(C(=O)N/N=C(\C)c3ccco3)c3ccccc3n2)c(OC)c1
EC50 [14]: > 300 µM (not active)
EC50 [2]: > 150 µM (not active)
EC50 [15]: > 300 µM (not active)
EC50 (Streptokinase A): > 150 µM (not active)
EC50 (Streptococcus): > 150 µM (not active)

ClCc1csc(-c2ccc(Cl)cc2)n1
AC50 [5]: 4.37 µM (active)

Source: ChEMBL document CHEMBL1201862, “PubChem BioAssay data set” (2004)
